COc1cc(CNC(=O)CCCCCCC(C)C)ccc1O
Conditions	solubility (mole fraction)
in acetone, 299.49 K	0.193
in acetone, 300.47 K	0.203
in acetone, 302.34 K	0.224
in acetone, 303.46 K	0.236
in acetone, 304.58 K	0.249
in acetone, 305.69 K	0.256
in acetone, 306.75 K	0.269
in acetone, 308.78 K	0.287
in ethanol, 301.79 K	0.184
in ethanol, 303.35 K	0.196
in ethanol, 305.54 K	0.213
in ethanol, 307.86 K	0.233
in ethanol, 309.95 K	0.249
in ethanol, 311.23 K	0.258
in ethanol, 312.98 K	0.268
in ethanol, 314.44 K	0.278
in ethyl acetate, 302.07 K	0.307
in ethyl acetate, 304.12 K	0.33
in ethyl acetate, 305.29 K	0.342
in ethyl acetate, 306.48 K	0.354
in ethyl acetate, 307.69 K	0.369
in ethyl acetate, 308.81 K	0.379
in ethyl acetate, 310.65 K	0.397
in ethyl acetate, 312.79 K	0.415
in n-heptane, 298.43 K	0.000229
in n-heptane, 300.59 K	0.00026
in n-heptane, 302.85 K	0.000299
in n-heptane, 304.03 K	0.000318
in n-heptane, 305.69 K	0.000349
in n-heptane, 307.08 K	0.000378
in n-heptane, 308.84 K	0.000422
in n-heptane, 309.97 K	0.000451
in n-heptane, 311.04 K	0.00048
in n-heptane, 313.41 K	0.000549
in n-hexane, 296.14 K	0.000136
in n-hexane, 298.73 K	0.000159
in n-hexane, 300.87 K	0.000181
in n-hexane, 301.98 K	0.000196
in n-hexane, 303.09 K	0.00021
in n-hexane, 305.04 K	0.000238
in n-hexane, 307.13 K	0.000269
in n-hexane, 309.25 K	0.000309
in n-hexane, 310.68 K	0.00034
in n-hexane, 312.02 K	0.000374
in n-pentane, 297.26 K	0.000115
in n-pentane, 298.19 K	0.000122
in n-pentane, 299.27 K	0.00013
in n-pentane, 300.43 K	0.000142
in n-pentane, 301.54 K	0.000152
in water, 324.67 K	4.81e-05
in water, 325.03 K	5.24e-05
in water, 325.66 K	6.14e-05
in water, 326.29 K	7.19e-05
in water, 326.81 K	8.17e-05
in water, 327.37 K	9.26e-05
